{"source": "patent US4108857A", "about": "“Imidazolylmethyl methanobenzazocines” (Sterling Drug Inc., priority 1977, dated 1978)", "key": {"[1]": {"assay": "solubility in water or aqueous acid", "conditions": "for solubility: water"}, "[2]": {"system": "maximal pentylenetetrazol seizures", "assay": "anti-maximal pentylenetetrazol seizure test in mice", "type": "in vivo", "conditions": "for ED50: Mus musculus"}, "[3]": {"system": "maximal electroshock seizures", "assay": "anti-maximal electroshock seizure test in mice", "type": "in vivo", "protocol": "The preferred species of this invention, i.e. the compounds having in free base form Formula II, are useful as analgesic agents administered orally or parenterally to humans. […] In the anti-maximal electroshock seizure test, the compounds were administered intraperitoneally or perorally 30 or 90 minutes prior to the application of 50 milliamperes of alternating current through corneal electrodes. Shock duration was 0.3 second. The criterion for anticonvulsant activity was the absence of the tonic hind leg extensor component of the seizure. In the anti-maximal pentylenetetrazol seizure test, the compounds were given intraperitoneally 30 or 90 minutes prior to the rapid intravenous injection of 50 mg. per kg. of pentylenetetrazol. Failure to display tonic hind leg extensor seizures was again the criterion for drug action. Representative results, expressed as ED50 (mg./kg.), which were obtained with my new compounds in these two tests are as follows: […]"}, "[4]": {"assay": "solubility in 95 percent ethyl alcohol", "conditions": "for solubility: 95% ethanol, organic solvent or mixture"}, "[5]": {"assay": "pH of solution", "type": "physicochemical", "conditions": "for pH of 1 percent aqueous solution: 1 percent solution (Example 26 as dihydrochloride, Example 32 as such, others as hydrochloride)"}, "[6]": {"assay": "precipitation on diluting ethyl alcohol solution with four volumes of water", "type": "physicochemical", "conditions": "5 percent (w/v) solution in 95 percent ethyl alcohol"}, "[7]": {"assay": "precipitation on gradual pH adjustment of the aqueous solution", "type": "physicochemical", "conditions": "for pH at which a precipitate formed: addition of N/10 sodium hydroxide solution to aqueous solution of hydrochloride; for precipitation on adjusting to pH 7.0: 1 percent solution"}, "[8]": {"system": "mice", "assay": "inclined screen test in mice (skeletal muscle relaxation)", "type": "in vivo", "conditions": "100 mg./kg. subcutaneously, mice"}, "[9]": {"system": "humans", "assay": "analgesic use in humans", "type": "in vivo", "protocol": "For example, administered orally, the effective dosage of the racemic cis form of this compound in humans has been determined to be about 0.1 to 0.5 mg. of drug per kg. of body weight per day, at 5-25 mg. per dose; preferably about 0.2 to 0.4 mg./kg./day, for instance a total of […] at 20 mg./dose."}, "[10]": {"conditions": "one entry spanning PO 30' and 90'"}}, "note": "Where a name gives a salt, the structure may show the parent alone.", "data": [{"smiles": "CC1[C@@H]2Cc3ccccc3[C@@]1(C)CCN2CC1CCC1", "note": "(mixture of isomers) [Example 4, racemic 1,2,3,4,5,6-hexahydro-3-cyclobutylmethyl-cis-6,11-dimethyl-2,6-methano-3-benzazocine]", "values": [{"measurement": "solubility of hydrochloride in water", "setting": "[1]; hydrochloride", "result": "less than 0.25%"}, {"measurement": "Anti-Maximal Pentylenetetrazol ED50", "setting": "[2]; IP, 30', 30 min", "result": "13.2 ± 3", "unit": "mg/kg"}, {"measurement": "Anti-Maximal Pentylenetetrazol ED50", "setting": "[2]; IP, 90', 90 min", "result": "26.2 ± 8.1", "unit": "mg/kg"}, {"measurement": "Anti-Maximal Pentylenetetrazol ED50", "setting": "[2]; PO, 30'", "result": "INACT."}, {"measurement": "Anti-Maximal Pentylenetetrazol ED50", "setting": "[2]; PO, 90', 90 min", "result": "25.8 ± 7", "unit": "mg/kg"}, {"measurement": "Anti-Maximal Electroshock ED50", "setting": "[3]; IP, 30', 30 min", "result": "30.5 ± 5.8", "unit": "mg/kg"}, {"measurement": "Anti-Maximal Electroshock ED50", "setting": "[3]; IP, 90'", "result": "INACT."}, {"measurement": "Anti-Maximal Electroshock ED50", "setting": "[3]; [10]", "result": "inact."}, {"measurement": "solubility of hydrochloride in 95 percent ethyl alcohol", "setting": "[4]", "result": "5 percent (w/v)"}, {"measurement": "pH of ethyl alcohol solution diluted with four volumes of water", "setting": "[5]; hydrochloride, 5 percent (w/v) in 95 percent ethyl alcohol, then diluted", "result": 6.1}, {"measurement": "precipitation on dilution with four volumes of water", "setting": "[6]", "result": "no precipitate formed"}]}, {"smiles": "C[C@@H]1[C@H]2Cc3ccccc3[C@]1(C)CCN2CC1CC1", "note": "(relative stereo) [Example 2, racemic 1,2,3,4,5,6-hexahydro-3-cyclopropylmethyl-trans-6,11-dimethyl-2,6-methano-3-benzazocine]", "values": [{"measurement": "solubility", "setting": "[1]", "result": "< 2.5", "unit": "mg/mL"}, {"measurement": "solubility", "setting": "[4]", "result": "< 10", "unit": "mg/mL"}]}, {"smiles": "CC[C@]12CCN(CC3CC3)[C@H](Cc3ccccc31)[C@@H]2C", "note": "(relative stereo) [Example 3, 1,2,3,4,5,6-hexahydro-3-cyclopropylmethyl-cis-(6-ethyl-11-methyl)-2,6-methano-3-benzazocine]", "values": [{"measurement": "solubility", "setting": "[1]", "result": 200, "unit": "mg/mL"}, {"measurement": "pH of 1 percent aqueous solution", "setting": "[5]", "result": 5.6}, {"measurement": "pH at which a precipitate formed", "setting": "[7]", "result": 6.5}]}, {"smiles": "C[C@H]1[C@H]2Cc3ccccc3[C@]1(C)CCN2CC1CC(C)(C)C1", "note": "(relative stereo) [Example 5, racemic 1,2,3,4,5,6-hexahydro-3-(3,3-dimethylcyclobutylmethyl)-cis-6,11-dimethyl-2,6-methano-3-benzazocine]", "values": [{"measurement": "solubility", "setting": "[1]", "result": 5, "unit": "mg/mL"}, {"measurement": "solubility", "setting": "[4]", "result": 50, "unit": "mg/mL"}, {"measurement": "pH of 0.5 percent aqueous solution", "setting": "[5]; hydrochloride, 0.5 percent", "result": 6.8}, {"measurement": "precipitation on dilution with four volumes of water", "setting": "[6]", "result": "a precipitate formed"}, {"measurement": "pH at which a precipitate formed", "setting": "[7]", "result": 6.8}]}, {"smiles": "C[C@H]1[C@H]2Cc3ccccc3[C@]1(C)CCN2CC1CCCC1", "note": "(relative stereo) [Example 6, racemic 1,2,3,4,5,6-hexahydro-3-cyclopentylmethyl-cis-6,11-dimethyl-2,6-methano-3-benzazocine]", "values": [{"measurement": "solubility", "setting": "[1]", "result": 10, "unit": "mg/mL"}, {"measurement": "ED50", "setting": "[2]; 0.5 h, IP, 30'", "result": "11.7 ± 2", "unit": "mg/kg"}, {"measurement": "ED50", "setting": "[2]; 1.5 h, IP, 90'", "result": "8 ± 3", "unit": "mg/kg"}, {"measurement": "Anti-Maximal Pentylenetetrazol ED50", "setting": "[2]; [10]", "result": "INACTIVE"}, {"measurement": "Anti-Maximal Electroshock ED50", "setting": "[3]; one entry spanning PO and IP, 30' and 90'", "result": "INACTIVE"}, {"measurement": "pH of 1 percent aqueous solution", "setting": "[5]", "result": 6.2}, {"measurement": "pH at which a precipitate formed", "setting": "[7]", "result": 6.3}]}, {"smiles": "CC(C)=CCN1CC[C@@]2(C)c3ccccc3C[C@@H]1[C@@H]2C", "note": "(relative stereo) [Example 10, racemic 1,2,3,4,5,6-hexahydro-3-(3-methyl-2-butenyl)-cis-6,11-dimethyl-2,6-methano-3-benzazocine]", "values": [{"measurement": "solubility", "setting": "[1]", "result": 200, "unit": "mg/mL"}, {"measurement": "pH of 1 percent aqueous solution", "setting": "[5]", "result": 6.1}, {"measurement": "precipitation on adjusting to pH 7.0", "setting": "[7]; N/10 sodium hydroxide solution", "result": "no precipitate was formed"}]}, {"smiles": "C[C@H]1[C@H]2Cc3ccccc3[C@]1(C)CCN2CCC(=O)O", "note": "(relative stereo) [Example 24, racemic 1,2,3,4,5,6-hexahydro-3-(2-carboxyethyl)-cis-6,11-dimethyl-2,6-methano-3-benzazocine hydrochloride]", "values": [{"measurement": "solubility", "setting": "[1]", "result": 100, "unit": "mg/mL"}, {"measurement": "pH of 1 percent aqueous solution", "setting": "[5]", "result": 3.0}, {"measurement": "precipitation on adjusting to pH 7.0", "setting": "[7]; N/10 sodium hydroxide solution", "result": "no precipitate formed"}]}, {"smiles": "C[C@H]1[C@H]2Cc3ccccc3[C@]1(C)CCN2CCCN", "note": "(relative stereo) [Example 26, racemic 1,2,3,4,5,6-hexahydro-3-(3-aminopropyl)-cis-6,11-dimethyl-2,6-methano-3-benzazocine]", "values": [{"measurement": "solubility", "setting": "[1]", "result": 200, "unit": "mg/mL"}, {"measurement": "pH of 1 percent aqueous solution", "setting": "[5]", "result": 6.6}, {"measurement": "precipitation on adjusting to pH 7.0", "setting": "[7]; N/10 sodium hydroxide solution", "result": "no precipitate was formed"}]}, {"smiles": "C[C@H]1[C@H]2Cc3ccccc3[C@]1(C)CCN2CCc1c[nH]c2ccccc12", "note": "(relative stereo) [Example 30, racemic 1,2,3,4,5,6-hexahydro-3-[2-(3-indolyl)ethyl]-cis-6,11-dimethyl-2,6-methano-3-benzazocine]", "values": [{"measurement": "solubility", "setting": "[1]", "result": "< 2.5", "unit": "mg/mL"}, {"measurement": "solubility of hydrochloride in 95 percent ethyl alcohol", "setting": "[4]", "result": "less than one"}]}, {"smiles": "CCCCNC(=O)N1CC[C@@]2(C)c3ccccc3C[C@@H]1[C@@H]2C", "note": "(relative stereo) [Example 32, racemic 1,2,3,4,5,6-hexahydro-3-(n-butylcarbamyl)-cis-6,11-dimethyl-2,6-methano-3-benzazocine]", "values": [{"measurement": "solubility", "setting": "[1]", "result": 200, "unit": "mg/mL"}, {"measurement": "pH of 1 percent aqueous solution", "setting": "[5]", "result": 9.2}, {"measurement": "precipitation on adjusting to pH 7.0", "setting": "[7]; N/10 hydrochloric acid solution", "result": "no precipitate was formed"}]}, {"smiles": "C[C@H]1[C@H]2Cc3ccccc3[C@]1(C)CCN2C(=O)c1cccnc1", "note": "(relative stereo) [Example 34, racemic 1,2,3,4,5,6-hexahydro-3-nicotinoyl-cis-6,11-dimethyl-2,6-methano-3-benzazocine]", "values": [{"measurement": "solubility", "setting": "[1]", "result": 200, "unit": "mg/mL"}, {"measurement": "pH of 1 percent aqueous solution", "setting": "[5]", "result": 2.7}, {"measurement": "pH at which a precipitate formed", "setting": "[7]", "result": 3.0}]}, {"smiles": "C[C@H]1[C@H]2Cc3ccccc3[C@]1(C)CCN2Cc1cncn1C", "note": "(relative stereo) [Example 37, racemic 1,2,3,4,5,6-hexahydro-3-(1-methylimidazol-5-yl)methyl-cis-6,11-dimethyl-2,6-methano-3-benzazocine]", "values": [{"measurement": "side-effect in the inclined screen test", "setting": "[8]", "result": "CNS stimulation"}, {"measurement": "skeletal muscle relaxant activity in the inclined screen test", "setting": "[8]; 30 or 60 minutes", "result": "active"}, {"measurement": "solubility", "setting": "[1]", "result": "< 2.5", "unit": "mg/mL"}, {"measurement": "solubility", "setting": "[4]", "result": 50, "unit": "mg/mL"}, {"measurement": "precipitation on dilution with four volumes of water", "setting": "[6]", "result": "precipitated"}]}, {"smiles": "COC(CN1CC[C@@]2(C)c3ccccc3C[C@@H]1[C@@H]2C)OC", "note": "(relative stereo) [Example 39, racemic 1,2,3,4,5,6-hexahydro-3-(2,2-dimethoxyethyl)cis-6,11-dimethyl-2,6-methano-3-benzazocine]", "values": [{"measurement": "solubility", "setting": "[1]", "result": 200, "unit": "mg/mL"}, {"measurement": "pH of 1 percent aqueous solution", "setting": "[5]", "result": 5.9}, {"measurement": "precipitation on adjusting to pH 7.0", "setting": "[7]; N/10 sodium hydroxide solution", "result": "no precipitate formed"}]}, {"smiles": "CC[C@H]1[C@H]2Cc3ccccc3[C@]1(C)CCN2C", "note": "(relative stereo) [racemic 1,2,3,4,5,6-hexahydro-3-methyl-cis-(6-methyl-11-ethyl)-2,6-methano-3-benzazocine]", "values": [{"measurement": "solubility", "setting": "[1]", "result": 50, "unit": "mg/mL"}, {"measurement": "pH of 1 percent aqueous solution", "setting": "[5]", "result": 6.7}, {"measurement": "precipitation on adjusting to pH 7.0", "setting": "[7]; N/10 sodium hydroxide solution", "result": "no precipitate formed"}]}, {"smiles": "CC1C2Cc3ccc(O)cc3C1(C)CCN2CC1CC1", "note": "(stereo not drawn) [1,2,3,4,5,6-hexahydro-3-cyclopropylmethyl-8-hydroxy-6,11-dimethyl-2,6-methano-3-benzazocine, reference compound]", "values": [{"measurement": "psychotomimetic effects in humans", "setting": "[9]; analgesically effective doses", "result": "significant incidence of psychotomimetic effects"}, {"measurement": "analgesic activity in humans", "setting": "[9]; humans", "result": "potent analgesic"}]}, {"smiles": "C[C@H]1[C@H]2Cc3ccccc3[C@]1(C)CCN2CC1CCCO1", "note": "(stereo partly drawn) [Example 28, 1,2,3,4,5,6-hexahydro-3-(tetrahydro-2-furylmethyl)-cis-6,11-dimethyl-2,6-methano-3-benzazocine]", "values": [{"measurement": "solubility", "setting": "[1]", "result": "< 2.5", "unit": "mg/mL"}, {"measurement": "solubility", "setting": "[4]", "result": 50, "unit": "mg/mL"}]}]}
